Measured values taken from ChEMBL document CHEMBL1201862, “PubChem BioAssay data set” (2004).
Activity calls are given as the source filed them.

Legend:
[1] = cytotoxicity toward NIH3T3 fibroblasts, dose response, counter-screen, cell-based, ATP luminescence, mouse fibroblasts (AID 2010); type: functional;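 further: cells exposed to compound for about 90 hours before reading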
Protein RecA = target: T1, Protein RecA (Mycobacterium tuberculosis, UniProt P9WHJ3); test: Fluorescence Cell-Free Homogeneous Dose Retest to Identify Inhibitors of RecA-Intein Splicing Activity. [Related pubchem assays (depositor defined):AID2097, AID2223, AID489010, AID492950]; type: functional
T1 sequence (P9WHJ3 whole entry): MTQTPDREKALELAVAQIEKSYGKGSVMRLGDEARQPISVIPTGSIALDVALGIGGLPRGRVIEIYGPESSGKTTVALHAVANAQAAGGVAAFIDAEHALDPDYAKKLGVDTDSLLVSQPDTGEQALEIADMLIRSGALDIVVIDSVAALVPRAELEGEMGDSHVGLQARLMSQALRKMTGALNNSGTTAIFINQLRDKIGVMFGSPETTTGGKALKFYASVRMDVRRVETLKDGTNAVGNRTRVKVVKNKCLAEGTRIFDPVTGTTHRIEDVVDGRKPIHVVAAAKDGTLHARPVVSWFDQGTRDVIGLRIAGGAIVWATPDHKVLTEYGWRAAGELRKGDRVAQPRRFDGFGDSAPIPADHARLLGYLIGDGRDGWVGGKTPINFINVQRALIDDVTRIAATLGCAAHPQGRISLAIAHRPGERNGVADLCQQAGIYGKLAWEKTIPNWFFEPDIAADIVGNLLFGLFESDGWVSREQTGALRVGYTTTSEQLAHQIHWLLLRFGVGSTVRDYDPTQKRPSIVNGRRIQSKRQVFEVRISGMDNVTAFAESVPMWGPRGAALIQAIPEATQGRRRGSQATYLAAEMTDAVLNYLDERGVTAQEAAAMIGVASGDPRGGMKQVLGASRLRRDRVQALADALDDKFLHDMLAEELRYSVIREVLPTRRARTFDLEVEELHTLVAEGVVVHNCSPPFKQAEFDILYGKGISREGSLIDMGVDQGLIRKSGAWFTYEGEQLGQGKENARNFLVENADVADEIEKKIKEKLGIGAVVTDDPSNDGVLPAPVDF

[2] = HepG2 cell cytotoxicity, dose response, cytotoxicity control for Shn3 inhibitor project, CellTiter-Glo, cherry-picked (AID 624134); type: functional, cell-based
[3] = Shn3 3'UTR reporter inhibitors, dose response, cell-based, Clone20 osteoblasts, firefly luciferase, cherry-picked (AID 624132); type: functional;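 further: firefly luciferase luminescence from reporter carrying the Shn3 3'UTR in osteoblasts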
[4] = target: T2, Replicative DNA helicase DnaB (Mycobacterium tuberculosis, UniProt P9WMR3); test: DnaB intein splicing inhibitors, dose response, biochemical, cell-free fluorescence (AID 449749); type: functional
T2 sequence (P9WMR3 whole entry): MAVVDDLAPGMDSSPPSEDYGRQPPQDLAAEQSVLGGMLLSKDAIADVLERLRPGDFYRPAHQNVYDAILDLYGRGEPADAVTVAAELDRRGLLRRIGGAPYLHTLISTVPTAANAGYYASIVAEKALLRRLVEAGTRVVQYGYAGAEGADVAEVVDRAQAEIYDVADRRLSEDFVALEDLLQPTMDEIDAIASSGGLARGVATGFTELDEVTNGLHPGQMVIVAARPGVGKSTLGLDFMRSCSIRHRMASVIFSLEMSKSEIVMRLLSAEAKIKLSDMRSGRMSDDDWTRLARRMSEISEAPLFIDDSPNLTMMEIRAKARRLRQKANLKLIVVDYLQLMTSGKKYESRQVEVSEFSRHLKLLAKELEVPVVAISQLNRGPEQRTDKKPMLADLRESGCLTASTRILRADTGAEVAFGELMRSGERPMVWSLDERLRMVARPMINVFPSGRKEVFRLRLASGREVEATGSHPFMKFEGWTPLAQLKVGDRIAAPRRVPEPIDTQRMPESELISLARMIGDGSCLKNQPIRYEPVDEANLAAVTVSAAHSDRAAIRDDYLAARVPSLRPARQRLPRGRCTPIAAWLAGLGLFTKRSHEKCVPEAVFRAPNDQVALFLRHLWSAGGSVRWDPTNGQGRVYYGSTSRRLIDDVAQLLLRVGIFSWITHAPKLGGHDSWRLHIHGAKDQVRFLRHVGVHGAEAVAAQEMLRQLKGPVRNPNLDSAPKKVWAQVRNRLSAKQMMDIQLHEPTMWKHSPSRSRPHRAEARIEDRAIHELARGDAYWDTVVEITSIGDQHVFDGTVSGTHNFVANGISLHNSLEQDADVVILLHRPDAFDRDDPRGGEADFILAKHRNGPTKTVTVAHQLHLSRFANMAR

[5] = inhibitors of intracellular T. cruzi replication, confirmation, NIH3T3 host cells, beta-gal luminescence (AID 2044); type: functional, cell-based;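 further: intracellular parasites grown in NIH/3T3 mouse fibroblasts as host cells; luminescent beta-galactosidase reporter signal from transgenic T. cruzi replicating inside host cells; inhibitors lower the luminescence signal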
[6] = target: DNA damage-inducible transcript 3 protein (Mus musculus, UniProt P35639); type: functional, Cricetulus griseus
[7] = Intein inhibitors as potential Tuberculosis drugs, a cytotoxicity screen. [Related pubchem assays (depositor defined):AID2221, AID2223, AID434968, AID435010, AID449749, AID449750, AID489010]; type: functional
[8] = control 3'UTR Renilla luciferase suppression, dose response, counter-screen for Shn3 inhibitor project, cell-based, Clone20-Shn3RL, cherry-picked (AID 624133); type: functional
[9] = target: Neurotensin receptor type 1 (Homo sapiens, UniProt P30989); type: functional;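 further: Image-based confirmatory dose-response assay measuring agonist activity at NTR1; NTR1-expressing U2OS osteosarcoma cells imaged for beta-arrestin GFP spot formation; agonist potency where compounds increase beta-arrestin recruitment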
[10] = target: T3, Polyadenylate-binding protein 1 (Homo sapiens, UniProt P11940); test: PABP poly(A) RNA binding inhibitors, primary screen, biochemical, fluorescence polarization, uHTS (AID 2014)
T3 sequence (P11940 whole entry): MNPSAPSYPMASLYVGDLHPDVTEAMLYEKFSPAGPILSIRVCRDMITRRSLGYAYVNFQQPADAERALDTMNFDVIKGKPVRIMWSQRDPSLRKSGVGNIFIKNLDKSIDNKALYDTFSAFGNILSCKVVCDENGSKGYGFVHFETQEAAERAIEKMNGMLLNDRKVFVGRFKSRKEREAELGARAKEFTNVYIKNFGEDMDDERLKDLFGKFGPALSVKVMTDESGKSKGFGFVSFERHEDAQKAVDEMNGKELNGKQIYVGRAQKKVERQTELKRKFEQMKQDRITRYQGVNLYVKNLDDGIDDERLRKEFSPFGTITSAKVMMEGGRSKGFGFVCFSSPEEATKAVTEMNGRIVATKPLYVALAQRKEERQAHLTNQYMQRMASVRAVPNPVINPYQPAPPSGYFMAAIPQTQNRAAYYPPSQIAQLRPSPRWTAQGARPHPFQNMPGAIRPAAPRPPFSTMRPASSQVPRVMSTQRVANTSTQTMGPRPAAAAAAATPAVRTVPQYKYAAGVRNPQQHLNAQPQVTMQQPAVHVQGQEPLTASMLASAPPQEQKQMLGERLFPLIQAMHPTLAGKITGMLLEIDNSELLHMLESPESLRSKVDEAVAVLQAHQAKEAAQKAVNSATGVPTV

[11] = target: T4, Eukaryotic translation initiation factor 4H (Homo sapiens, UniProt Q15056); test: human eIF4H binding inhibitors, primary screen, translation initiation inhibitor project, biochemical, uHTS, fluorescence polarization (AID 2012)
[12] = target: T3, Polyadenylate-binding protein 1; test: PABP inhibition in translation initiation, SAR follow-up (AID 435018); type: functional
[13] = target: T4, Eukaryotic translation initiation factor 4H; test: eIF4H inhibition in translation initiation, SAR follow-up (AID 435011); type: functional
[14] = target: T5, Runt-related transcription factor 1/Core-binding factor subunit beta (Homo sapiens, UniProt Q01196+Q13951); test: inhibitors of RUNX1 Runt–CBFb-SMMHC binding, biochemical, TR-FRET (AID 1438); type: protein assay
T5 sequence (Q01196 whole entry): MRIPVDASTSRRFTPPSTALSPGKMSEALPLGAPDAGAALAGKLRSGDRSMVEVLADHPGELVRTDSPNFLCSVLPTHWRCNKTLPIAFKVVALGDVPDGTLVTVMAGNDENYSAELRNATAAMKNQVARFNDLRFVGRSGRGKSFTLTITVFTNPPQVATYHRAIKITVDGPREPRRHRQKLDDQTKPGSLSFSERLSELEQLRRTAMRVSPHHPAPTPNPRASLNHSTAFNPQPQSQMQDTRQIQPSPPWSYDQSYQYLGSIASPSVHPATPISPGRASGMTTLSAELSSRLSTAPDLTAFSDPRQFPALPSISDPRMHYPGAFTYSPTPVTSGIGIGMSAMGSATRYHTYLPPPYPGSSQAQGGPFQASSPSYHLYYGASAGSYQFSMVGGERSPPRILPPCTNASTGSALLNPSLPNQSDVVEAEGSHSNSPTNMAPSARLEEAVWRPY
T5 sequence (Q13951 whole entry): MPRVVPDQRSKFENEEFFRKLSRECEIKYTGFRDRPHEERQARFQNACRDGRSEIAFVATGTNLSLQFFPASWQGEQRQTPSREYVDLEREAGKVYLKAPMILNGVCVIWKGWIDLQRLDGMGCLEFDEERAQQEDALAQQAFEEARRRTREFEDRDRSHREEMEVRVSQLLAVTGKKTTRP

[15] = cytotoxicity in HPDE-C7 cells, cell-based, fluorescence, HTS (AID 430); type: functional; conditions: Homo sapiens
[16] = cytotoxicity in KRAS-transformed pancreatic duct cells, primary screen, cell-based, fluorescence, HTS (AID 431); type: functional; conditions: Homo sapiens;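 further: cell line used: HPDE-C7K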
[17] = target: T5, Runt-related transcription factor 1/Core-binding factor subunit beta; test: inhibitors of RUNX1 Runt–CBFb-SMMHC binding, primary screen, biochemical, FRET, Cerulean-Runt, Venus-CBFb-SMMHC, uHTS (AID 1434); type: protein assay;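 further: partner is the CBFb-SMMHC leukemia fusion protein rather than wild-type CBFb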
Estrogen receptor = target: T6, Estrogen receptor (Homo sapiens, UniProt P03372);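 further: potency for inhibiting coactivator peptide recruitment to the receptor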
T6 sequence (P03372 whole entry): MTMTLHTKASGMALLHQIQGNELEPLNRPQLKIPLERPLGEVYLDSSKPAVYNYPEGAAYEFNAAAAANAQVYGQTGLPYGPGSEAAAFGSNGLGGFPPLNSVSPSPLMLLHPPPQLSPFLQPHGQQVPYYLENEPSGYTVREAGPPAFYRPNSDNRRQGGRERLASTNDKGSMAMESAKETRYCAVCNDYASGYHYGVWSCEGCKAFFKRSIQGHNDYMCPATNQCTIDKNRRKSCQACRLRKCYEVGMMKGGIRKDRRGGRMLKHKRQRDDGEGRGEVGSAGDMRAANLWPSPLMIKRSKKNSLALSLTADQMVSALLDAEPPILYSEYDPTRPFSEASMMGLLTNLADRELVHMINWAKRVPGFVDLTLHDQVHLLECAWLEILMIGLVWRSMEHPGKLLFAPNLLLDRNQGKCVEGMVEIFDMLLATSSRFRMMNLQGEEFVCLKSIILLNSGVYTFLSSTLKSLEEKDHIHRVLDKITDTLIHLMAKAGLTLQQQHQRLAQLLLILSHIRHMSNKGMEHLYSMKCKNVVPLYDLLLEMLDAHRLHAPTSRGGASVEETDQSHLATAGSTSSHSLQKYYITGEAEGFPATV

Mucolipin-3 = Mucolipin-3 (Homo sapiens, UniProt Q8TDD5); test: Fluorescence counterscreen assay for […] agonists: dose response cell-based high-throughput screening assay to identify agonists of the transient receptor potential channel ML3 (TRPML3). [Related pubchem assays: 1424, 1448 ]; type: functional
[18] = target: T7, Voltage-gated N-type calcium channel alpha-1B subunit/Amyloid beta A4 precursor protein-binding family A member 1 (Homo sapiens, UniProt Q00975+Q02410); type: protein assay
T7 sequence (Q00975 whole entry): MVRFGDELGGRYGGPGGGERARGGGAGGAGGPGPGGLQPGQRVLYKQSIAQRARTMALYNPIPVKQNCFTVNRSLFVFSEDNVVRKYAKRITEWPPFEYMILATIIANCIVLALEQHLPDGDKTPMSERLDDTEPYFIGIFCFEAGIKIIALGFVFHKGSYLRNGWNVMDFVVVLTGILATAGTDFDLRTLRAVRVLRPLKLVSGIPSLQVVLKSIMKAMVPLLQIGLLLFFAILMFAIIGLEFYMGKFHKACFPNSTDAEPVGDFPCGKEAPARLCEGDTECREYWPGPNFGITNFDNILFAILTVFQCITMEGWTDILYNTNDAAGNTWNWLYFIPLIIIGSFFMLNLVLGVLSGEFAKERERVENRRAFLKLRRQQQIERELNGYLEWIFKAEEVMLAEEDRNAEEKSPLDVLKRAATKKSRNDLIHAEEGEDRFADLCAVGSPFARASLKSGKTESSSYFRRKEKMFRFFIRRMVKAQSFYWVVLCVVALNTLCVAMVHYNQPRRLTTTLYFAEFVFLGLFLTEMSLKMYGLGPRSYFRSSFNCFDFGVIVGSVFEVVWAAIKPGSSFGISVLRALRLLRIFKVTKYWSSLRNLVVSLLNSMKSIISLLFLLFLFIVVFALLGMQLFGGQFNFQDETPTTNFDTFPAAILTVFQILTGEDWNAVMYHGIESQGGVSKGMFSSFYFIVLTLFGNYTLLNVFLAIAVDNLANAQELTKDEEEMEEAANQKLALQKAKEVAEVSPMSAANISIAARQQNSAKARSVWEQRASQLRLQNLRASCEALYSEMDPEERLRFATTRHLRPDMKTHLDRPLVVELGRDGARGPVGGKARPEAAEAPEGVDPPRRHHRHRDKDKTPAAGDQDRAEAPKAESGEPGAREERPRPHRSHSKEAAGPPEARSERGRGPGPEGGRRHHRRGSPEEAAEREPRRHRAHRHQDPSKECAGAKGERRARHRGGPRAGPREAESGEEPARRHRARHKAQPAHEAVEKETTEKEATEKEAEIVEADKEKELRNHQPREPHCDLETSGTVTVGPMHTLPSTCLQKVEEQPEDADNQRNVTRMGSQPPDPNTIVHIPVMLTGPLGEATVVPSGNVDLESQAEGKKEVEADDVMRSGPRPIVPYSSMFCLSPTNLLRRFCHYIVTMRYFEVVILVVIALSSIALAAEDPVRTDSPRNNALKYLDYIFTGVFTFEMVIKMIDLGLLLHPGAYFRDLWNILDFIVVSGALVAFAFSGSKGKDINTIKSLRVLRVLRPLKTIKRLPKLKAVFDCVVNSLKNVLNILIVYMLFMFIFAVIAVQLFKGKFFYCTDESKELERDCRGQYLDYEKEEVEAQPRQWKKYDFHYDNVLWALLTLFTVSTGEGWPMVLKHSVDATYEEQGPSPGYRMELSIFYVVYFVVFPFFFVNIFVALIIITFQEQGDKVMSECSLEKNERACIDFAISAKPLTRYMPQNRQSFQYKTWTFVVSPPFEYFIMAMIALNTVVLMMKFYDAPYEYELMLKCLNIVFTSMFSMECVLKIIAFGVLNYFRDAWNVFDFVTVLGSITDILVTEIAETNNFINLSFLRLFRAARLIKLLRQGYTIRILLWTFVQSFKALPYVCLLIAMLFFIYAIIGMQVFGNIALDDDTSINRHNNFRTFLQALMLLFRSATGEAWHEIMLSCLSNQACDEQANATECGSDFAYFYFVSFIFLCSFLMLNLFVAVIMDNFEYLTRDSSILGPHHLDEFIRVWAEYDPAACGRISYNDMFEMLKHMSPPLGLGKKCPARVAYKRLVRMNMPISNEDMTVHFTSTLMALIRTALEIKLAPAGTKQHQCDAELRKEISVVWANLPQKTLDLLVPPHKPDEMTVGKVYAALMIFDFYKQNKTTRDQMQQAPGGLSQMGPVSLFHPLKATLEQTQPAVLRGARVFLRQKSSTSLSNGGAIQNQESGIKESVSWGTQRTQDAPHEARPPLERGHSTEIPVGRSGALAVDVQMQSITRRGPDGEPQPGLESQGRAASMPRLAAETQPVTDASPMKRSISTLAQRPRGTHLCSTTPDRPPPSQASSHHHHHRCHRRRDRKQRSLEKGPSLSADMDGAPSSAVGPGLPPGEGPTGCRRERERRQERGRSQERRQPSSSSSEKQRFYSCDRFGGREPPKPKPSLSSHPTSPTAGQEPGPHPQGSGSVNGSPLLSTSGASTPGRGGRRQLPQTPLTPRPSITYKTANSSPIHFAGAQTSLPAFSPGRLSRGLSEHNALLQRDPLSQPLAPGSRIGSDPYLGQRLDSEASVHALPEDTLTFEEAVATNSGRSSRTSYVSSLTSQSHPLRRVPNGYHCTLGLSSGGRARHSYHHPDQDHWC
T7 sequence (Q02410 whole entry): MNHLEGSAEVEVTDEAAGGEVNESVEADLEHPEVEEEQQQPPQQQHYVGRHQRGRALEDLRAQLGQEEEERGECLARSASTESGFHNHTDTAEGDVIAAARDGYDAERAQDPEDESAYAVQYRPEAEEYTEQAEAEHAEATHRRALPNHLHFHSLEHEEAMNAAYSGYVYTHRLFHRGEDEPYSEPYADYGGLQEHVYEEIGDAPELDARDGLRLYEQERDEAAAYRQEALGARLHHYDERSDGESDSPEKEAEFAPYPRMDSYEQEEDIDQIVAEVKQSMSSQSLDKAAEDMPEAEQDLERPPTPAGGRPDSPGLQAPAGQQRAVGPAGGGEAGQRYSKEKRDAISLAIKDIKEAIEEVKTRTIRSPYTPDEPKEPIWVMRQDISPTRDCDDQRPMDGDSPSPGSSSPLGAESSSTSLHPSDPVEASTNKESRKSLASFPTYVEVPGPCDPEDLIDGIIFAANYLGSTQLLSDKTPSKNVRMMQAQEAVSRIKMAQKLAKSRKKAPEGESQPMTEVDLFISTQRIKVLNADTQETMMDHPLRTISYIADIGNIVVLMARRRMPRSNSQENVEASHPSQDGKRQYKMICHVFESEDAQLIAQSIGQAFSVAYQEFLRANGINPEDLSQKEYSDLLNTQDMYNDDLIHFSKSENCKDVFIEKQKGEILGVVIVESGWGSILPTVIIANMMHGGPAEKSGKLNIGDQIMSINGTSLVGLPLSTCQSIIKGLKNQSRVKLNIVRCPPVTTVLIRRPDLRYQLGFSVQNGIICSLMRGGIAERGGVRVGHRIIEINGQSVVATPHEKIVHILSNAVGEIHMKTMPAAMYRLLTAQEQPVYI

[19] = target: T7, Voltage-gated N-type calcium channel alpha-1B subunit/Amyloid beta A4 precursor protein-binding family A member 1; type: protein assay; remark: listed apart in the source
Ion channel NompC = Ion channel NompC (Danio rerio, UniProt Q7T1G6); test: Dose response cell-based high-throughput screening assay for agonists of the transient receptor potential channel N1 (TRPN1). [Related pubchem assays (depositor defined):AID1424, AID1448]; type: functional
[20] = target: Alkaline phosphatase, placental type (Homo sapiens, UniProt P05187); test: PLAP enzyme inhibitors, confirmation, biochemical, luminescence (AID 1512); type: functional
[21] = target: T8, Alkaline phosphatase, tissue-nonspecific isozyme (Homo sapiens, UniProt P05186); test: human TNAP enzyme inhibitors, SAR follow-up, biochemical, luminescent, dose response (AID 1056)
T8 sequence (P05186 whole entry): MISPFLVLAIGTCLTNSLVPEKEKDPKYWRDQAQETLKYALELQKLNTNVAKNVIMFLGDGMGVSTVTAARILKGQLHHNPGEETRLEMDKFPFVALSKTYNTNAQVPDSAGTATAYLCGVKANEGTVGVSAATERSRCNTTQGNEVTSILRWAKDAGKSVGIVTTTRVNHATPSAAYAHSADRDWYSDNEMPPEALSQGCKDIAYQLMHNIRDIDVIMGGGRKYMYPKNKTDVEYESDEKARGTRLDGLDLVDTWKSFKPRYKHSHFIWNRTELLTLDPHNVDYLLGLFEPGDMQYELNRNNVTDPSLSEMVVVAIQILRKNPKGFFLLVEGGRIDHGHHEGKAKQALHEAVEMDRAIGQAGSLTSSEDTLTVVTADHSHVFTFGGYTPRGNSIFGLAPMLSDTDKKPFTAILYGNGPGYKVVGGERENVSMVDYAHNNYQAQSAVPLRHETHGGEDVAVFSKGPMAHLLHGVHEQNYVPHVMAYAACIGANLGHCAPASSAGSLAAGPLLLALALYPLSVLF

[22] = target: Glyceraldehyde-3-phosphate dehydrogenase (Homo sapiens, UniProt P04406)
Sequence of Glyceraldehyde-3-phosphate dehydrogenase (P04406 whole entry): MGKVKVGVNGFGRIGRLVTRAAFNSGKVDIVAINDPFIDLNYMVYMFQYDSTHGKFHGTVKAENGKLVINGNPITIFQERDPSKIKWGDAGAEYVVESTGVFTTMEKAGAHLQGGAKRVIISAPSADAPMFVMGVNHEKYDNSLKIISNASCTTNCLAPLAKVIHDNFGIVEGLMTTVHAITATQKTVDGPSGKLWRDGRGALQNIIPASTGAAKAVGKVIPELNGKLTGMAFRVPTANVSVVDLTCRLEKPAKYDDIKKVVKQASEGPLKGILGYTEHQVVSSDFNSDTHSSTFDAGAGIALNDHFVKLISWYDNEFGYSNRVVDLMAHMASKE

[23] = Luminescence Cell-Based Dose Retest to Confirm Inhibitors of Cancer Stem Cells. [Related pubchem assays (depositor defined):AID2717, AID2721]; type: functional; conditions: Homo sapiens
Integrin alpha-4 = Integrin alpha-4 (Homo sapiens, UniProt P13612); test: VLA-4 integrin allosteric ligands, SAR follow-up, cell-based, LIBS antibody binding, flow cytometry (AID 488791); type: functional
[24] = target: T9, Ubiquitin-conjugating enzyme E2 N (Homo sapiens, UniProt P61088); type: functional;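 further: Dose-response confirmation in a TR-FRET assay detecting UBC13-driven polyubiquitin chain formation, inhibition measured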
T9 sequence (P61088 whole entry): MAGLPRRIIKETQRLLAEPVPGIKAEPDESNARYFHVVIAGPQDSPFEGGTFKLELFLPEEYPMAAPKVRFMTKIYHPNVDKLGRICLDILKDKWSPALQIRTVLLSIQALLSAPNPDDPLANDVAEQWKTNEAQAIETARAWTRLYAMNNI

INS1 = test: beta cell apoptosis inhibitors, cytokine rescue, dose response, luminescence, retest (AID 449756); type: functional, cell-based; conditions: Rattus norvegicus;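 further: cell death triggered by IL-1 beta plus TNF-alpha plus IFN-gamma mixture; protective hits raise ATP signal compared with cytokine alone wells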
Melanocortin receptor 4 = Melanocortin receptor 4 (Homo sapiens, UniProt P32245); type: functional, cell-based;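 further: Cell-based assay with luminescence read-out, confirmatory dose-response testing for agonist activity of biased ligands at MC4R; human U2OS cells with tagged receptor and beta-arrestin; potency of agonists that increase receptor coupling to beta-arrestin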
Hexokinase = Hexokinase (Trypanosoma brucei, UniProt Q38C41); test: Confirmation assay for inhibitors of Trypanosoma brucei hexokinase 1-Analogue-first series. [Related pubchem assays (depositor defined):AID1430, AID1632, AID2516, AID2560, AID2579, AID2600, AID449725, AID492951]; type: functional
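Wherever CC50 is given: cells exposed to compound for 72 hours before luminescence readout.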

Q: Which EC50 [1] does the source give for Cc1cc(Br)c2c(c1)/C(=C/C(=O)c1cccs1)C(=O)N2 here?
A: > 60 µM (not active)

Q: What about the EC50 (Protein RecA) of the same molecule?
A: 3.27 µM (active)

Q: What about the AC50 [2] of the same molecule?
A: 48.5 µM (active)

Q: What about the AC50 [3] of the same molecule?
A: 19.9 µM (active)

Q: What about the AC50 [4] of the same molecule?
A: 2.46 µM (active)

Q: What about the EC50 [5] of the same molecule?
A: 1.95 µM (active)

Q: And the “Absolute IC50 (CHOP)” value [6]?
A: 10 µM

Q: And the CC50 [7]?
A: 18.4 µM (active)

Q: What about the AC50 [8] of the same molecule?
A: 20.7 µM (active)

Q: What about the EC50 [9] of the same molecule?
A: 17.4 µM (active)

Q: What does the source list for COC(=O)c1c(Sc2ccccc2)c2ccccc2n1C?
A: IC50 [10]: 2.76 µM (active); IC50 [11]: > 100 µM (inactive); IC50 [12]: 13.8 µM (active); IC50 [13]: 4.23 µM (active)

Q: What does the source list for N#Cc1c(NCCN)nc(NCc2ccccc2)c2c1CCN(Cc1ccccc1)C2?
A: IC50 [14]: 47.8 µM (active); EC50 [15]: > 20 µM (not active); EC50 [16]: > 20 µM (not active); IC50 [17]: 4.57 µM (active); IC50 (Estrogen receptor): 11.8 µM (active)

Q: Which EC50 (Mucolipin-3) does the source give for COc1cc(/C=C2\SC(=S)N(c3cccnc3)C2=O)ccc1O here?
A: > 29.9 µM (not active)

Q: What about the IC50 [18] of the same molecule?
A: > 50 µM (inactive)

Q: What about the IC50 [19] of the same molecule?
A: 4.4 µM (active)

Q: And the EC50 (Ion channel NompC)?
A: > 29.9 µM (inactive)

Q: For O=C(CSc1n[nH]c(-c2ccccc2Cl)n1)Nc1ccccc1F, which IC50 [20] is on record?
A: > 100 µM (inactive)

Q: And the IC50 [21]?
A: 4.7 µM (active)

Q: And the IC50 [22]?
A: > 100 µM (not active)

Q: Which results are given for CN(C)CCOc1ccc(-c2c(-c3ccccc3)sc3ccccc23)cc1?
A: AC50 [23]: 2.93 µM (active); EC50 (Integrin alpha-4): > 30 µM (inactive); IC50 [24]: > 20 µM (inactive); AC50 (INS1): 6.82 µM (active); EC50 (Melanocortin receptor 4): > 89.2 µM (inactive)

Q: For Cn1c2ccccc2c(=O)n1-c1ccccc1, which IC50 (Hexokinase) is on record?
A: > 25 µM (inactive)
